# Legend:
# [1] = molecular target: T1, hPPARalpha (Homo sapiens, UniProt Q07869); assay: PPAR activation: Gal4-hPPARα chimera luciferase transactivation in COS-7 cells, Method 2; assay type: cell-based; conditions: COS-7, 24 h
# T1 construct: expressed in transfected cells; host or cells: COS-7 (monkey kidney fibroblasts)
# T1 sequence (Q07869 239-466 limits assumed): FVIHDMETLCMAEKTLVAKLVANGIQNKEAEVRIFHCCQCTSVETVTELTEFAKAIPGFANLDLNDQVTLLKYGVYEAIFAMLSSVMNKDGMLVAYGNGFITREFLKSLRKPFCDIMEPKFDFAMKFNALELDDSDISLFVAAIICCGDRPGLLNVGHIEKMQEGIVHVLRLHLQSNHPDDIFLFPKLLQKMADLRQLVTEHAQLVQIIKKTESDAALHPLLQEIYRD
# In short: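 COS-7 cells were transfected with Gal4-PPAR LBD chimera plus Gal4(RE)_TkpGL3 luciferase reporter (1/10) and seeded serum-free for 4 h. Compounds at 10^−5 to 100 μm were applied for 24 h at 37° C in 1% lipid-free synthetic serum. Luciferase was read after lysis, and EC50 derived.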
# [2] = tested on: C57Bl6 mouse; assay: Plasma lipid assays in the C57Bl6 mouse, compound 2 at dose effect; assay type: in vivo
# Experimental: The effect of compound 2, administered at dose effect, is evaluated in vivo in the C57Bl6 mouse after 14 days of treatment by the oral route. At the end of the treatment, the antilipemic effect of compound 2 is evaluated by measuring the plasma levels of total cholesterol, of HDL-cholesterol, of triglycerides and of free fatty acids.
# Female C57Bl6 mice were kept under a cycle of light and darkness of 12/12 hours at a constant temperature of 20±3° C. After acclimation for one week, the mice were weighed and put into groups of 6 animals selected so that the distribution of their body weight, of their plasma lipid levels and of total cholesterol determined for the first time before the experiment, is uniform. The test compounds were suspended in carboxymethylcellulose (Sigma C4888) and administered by intragastric force feeding, at a rate of once per day for 14 days at the chosen dose. The animals had free access to water and to food (standard diet). At the end of the experiment, the animals were anesthetized after fasting for 4 hours. A blood sample was taken using anticoagulant (EDTA), then the mice were weighed and euthanased. The plasma was separated by centrifugation at 3000 rev/min for 20 minutes, and the samples were stored at +4° C.
# Plasma concentrations of total cholesterol and of triglycerides were measured by enzyme assays (bioMérieux-Lyon-France) following the supplier's recommendations.
# Low-density lipoproteins (VLDL and LDL) were precipitated with phosphotungstate. The precipitate was removed by centrifugation. The HDL-cholesterol present in the supernatant was quantified by enzyme assays (bioMérieux-Lyon-France) following the supplier's recommendations.
# Plasma concentrations of free fatty acids were measured by enzyme assays (WACO chemicals) following the supplier's recommendations.
# [3] = tested on: target genes of the PPARs; assay: Expression of PPARδ target genes in skeletal muscle of the C57Bl6 mouse (compound 2), quantitative RT-PCR; assay type: in vivo; conditions: C57Bl6 mice; 50 mpk; 14 days
# Source text: The PPARδ agonistic properties of the molecules according to the invention previously measured in vitro should be reflected at the level of the skeletal muscle in an overexpression of the target genes directly under the control of the PPARδ receptor: the genes that were investigated in this experiment are the genes coding for UCP2 (uncoupling protein 2, mitochondrial transporter involved in thermoregulation) and PDK4 (pyruvate dehydrogenase kinase isoform 4, enzyme of carbohydrate metabolism).
# Female C57Bl6 mice were kept under a cycle of light and darkness of 12/12 hours at a constant temperature of 20±3° C. After acclimation for one week, the mice were weighed and put into groups of 6 animals selected so that the distribution of their body weight, of their plasma lipid levels and of total cholesterol determined for the first time before the experiment, is uniform. […]
# 1 μg of total RNA (quantified on the basis of the spectrophotometer reading) was then reverse-transcribed to complementary DNA by reaction for 1 hour at 37° C. in a total volume of 30 μl containing buffer 1× (Invitrogen), 1.5 mM of DTT, 0.18 mM of dNTPs (Promega), 200 ng of pdN6 (Amersham), 30 U of RNase inhibitor (Promega) and 1 μl of MMLV-RT (Invitrogen). […]
# The amount of fluorescence emitted is directly proportional to the amount of complementary DNA present at the start of the reaction and amplified during PCR. […]
SMILES,EC50 ([1]; 1% Ultroser),"Emax ([1]; maximum percentage response relative to the reference phenofibric acid, read-out: hPPARalpha % max)",lipid profile ([2]; C57Bl6 mice treated for 14 days),"plasma triglyceride levels ([2]; C57Bl6 mouse, 14 days oral, 1, 5, 10 and 50 mpk, significant effect at 50 mpk)","plasma total cholesterol levels ([2]; C57Bl6 mouse, 14 days oral, at 5 and 50 mpk (tested 1, 5, 10 and 50 mpk))","plasma HDL-cholesterol levels ([2]; C57Bl6 mouse, 14 days oral, dose-dependent manner starting from 1 mpk)","plasma levels of free fatty acids ([2]; C57Bl6 mouse, 14 days oral, starting from 10 mpk)",expression of the gene coding for PDK4 in skeletal muscle [3],expression of the gene coding for UCP2 in skeletal muscle [3]
"CC(C)(Oc1ccc(CCC(OCc2ccccc2)c2ccc(-c3ccc(C(F)(F)F)cc3)s2)c(Cl)c1Cl)C(=O)O (stereo not drawn) [Compound 7, 2-(4-(3-(benzyloxy)-3-(5-(4-(trifluoromethyl)phenyl)thien-2-yl)propyl)-2,3-dichlorophenoxy)-2-methylpropanoic acid]",5.46 µM,20%,–,–,–,–,–,–,–
"CC(C)(Oc1ccc(CCC(=O)c2ccc(-c3ccc(C(F)(F)F)cc3)s2)c(Cl)c1Cl)C(=O)O [Compound 2, 2-(2,3-dichloro-4-(3-oxo-3-(5-(4-(trifluoromethyl)phenyl)thien-2-yl)propyl)phenoxy)-2-methylpropanoic acid]",–,–,improves,dose-dependent decrease,significantly increased,significantly increased,lowered significantly,significant increase,significant increase

# Source: patent publication US8088819B2, “Derivatives of substituted 3-phenyl-1-(phenylthienyl)propan-1-ones and of 3-phenyl-1-(phenylfuranyl) propan-1-ones, preparation and use” (priority 2006, dated 2012)
